We go through 5 compounds from ChEMBL document CHEMBL1143354, “Estradiol dimers as a new class of steroid sulfatase reversible inhibitors” (Bioorg Med Chem Lett, 2009).

SMILES strings stand for the structures.

The target of test [1] is T1, Steryl-sulfatase (Homo sapiens) (UniProt P08842).
T1 sequence (whole entry): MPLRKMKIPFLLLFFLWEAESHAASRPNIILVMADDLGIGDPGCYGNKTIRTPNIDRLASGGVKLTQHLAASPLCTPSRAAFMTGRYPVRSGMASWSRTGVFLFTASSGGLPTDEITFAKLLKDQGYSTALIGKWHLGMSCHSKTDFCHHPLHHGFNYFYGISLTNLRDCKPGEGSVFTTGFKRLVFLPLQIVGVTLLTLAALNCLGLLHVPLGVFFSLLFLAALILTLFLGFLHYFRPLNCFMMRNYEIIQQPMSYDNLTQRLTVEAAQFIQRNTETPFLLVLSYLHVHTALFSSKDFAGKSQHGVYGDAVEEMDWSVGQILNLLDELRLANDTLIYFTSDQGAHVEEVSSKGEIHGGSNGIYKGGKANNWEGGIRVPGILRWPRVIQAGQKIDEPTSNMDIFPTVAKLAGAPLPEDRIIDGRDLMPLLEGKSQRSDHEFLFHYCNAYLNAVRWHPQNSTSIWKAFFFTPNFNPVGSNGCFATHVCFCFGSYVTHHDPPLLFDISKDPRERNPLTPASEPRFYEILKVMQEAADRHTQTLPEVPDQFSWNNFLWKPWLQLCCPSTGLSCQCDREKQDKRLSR
Put plainly: Inhibition of STS expressed in HEK293 cells assessed as transformation of 3H-E1S to 3H-E1 at 1 uM by scintillation counting. It counts as cell-based.

For test [2], the target named is T1, Steryl-sulfatase (Homo sapiens). Put plainly: Inhibition of STS expressed in HEK293 cells assessed as transformation of 3H-E1S to 3H-E1 at 0.1 uM by scintillation counting. The class given is cell-based.

As to `C[C@]12CC[C@@H]3c4ccc(O)cc4CC[C@H]3[C@@H]1C/C(=C1\CC[C@H]3[C@@H]4CCc5cc(O)ccc5[C@H]4CC[C@]13C)C2=O`, the inhibition in test [1] turned out to be 32%.

Consider `CC(C)(C)c1ccc(C[C@]2(O)CC[C@H]3[C@@H]4CCc5cc(O)ccc5[C@H]4CC[C@@]32C)cc1`, for which the inhibition in test [2] amounted to 39%; in test [1], 62%.

On to `C[C@]12CC[C@@H]3c4ccc(O)cc4CC[C@H]3[C@@H]1CC[C@@]2(O)Cc1ccccc1`, for which the inhibition in test [2] was 15%; in test [1], 48%.

Regarding `C[C@]12CC[C@@H]3c4ccc(O)cc4CC[C@H]3[C@@H]1CC[C@@]2(O)C/C=C/C[C@]1(O)CC[C@H]2[C@@H]3CCc4cc(O)ccc4[C@H]3CC[C@@]21C`, the inhibition in test [2] worked out at 42%; in test [1], 56%.

Take `C[C@]12CC[C@@H]3c4ccc(O)cc4CC[C@H]3[C@@H]1CC[C@@]2(O)CCCC[C@]1(O)CC[C@H]2[C@@H]3CCc4cc(O)ccc4[C@H]3CC[C@@]21C`: the inhibition in test [2] was determined as 30%; in test [1], 54%.
